Experimental data taken from US6071950A, “N-substituted pyrrolidine derivatives and process for preparing the same” (Kyorin Pharmaceutical Co., Ltd., priority 1996, dated 2000).

How the values were obtained:
[1] = biological target: T1, ileum muscarine receptors (Cavia porcellus, UniProt H0W1Z3); experiment: Antagonism on the acetylcholine-induced contraction of ileum (in vitro test); conditions: guinea pig ileum, Schild plot, acetylcholine 10^-9 M~3×10^-6 M, 28° C., read-out: pA2 Ileum (converted)
T1 construct: The ileum was removed to make a 1.5 to 2 cm preparation; from tissue; host or cells: isolated ileum of Hartley male guinea pig
Protocol: 1. Antagonism on the acetylcholine-induced contraction of ileum (in vitro test)
Hartley male guinea pig was killed by stunning and bleeding. The ileum was removed to make a 1.5 to 2 cm preparation. The preparation was mounted in a 10 ml organ bath filled with Tyrode's solution of 28° C. that was bubbled with 95% O2 /5% CO2. The initial resting tension of 1 g was applied to the preparation and measurement of isomeric muscle tension was recorded.
(§1) The action of testing drug is shown in terms of pA2 determined from Schild plot of the extent of right shift of the concentration-response curve on 10^-9 M~3×10^-6 M of acetylcholine.

[2] = biological target: T2, sphincter muscle of the pupil (Oryctolagus cuniculus, UniProt G1U308); experiment: Antagonism on the acetylcholine-induced contraction of pupil (in vitro test); conditions: rabbit sphincter muscle of the pupil, Schild plot, acetylcholine 10^-6 M~10^-2 M, 30° C., read-out: pA2 Pupil (converted)
T2 construct: The eyeball was removed to make a preparation of sphincter muscle of the pupil; from tissue; host or cells: isolated pupillary sphincter muscle of Japanese white male rabbit
Protocol: 2. Antagonism on the acetylcholine-induced contraction of pupil (in vitro test)
Japanese white male rabbit was anesthetized using sodium pentobarbital and killed by bleeding. The eyeball was removed to make a preparation of sphincter muscle of the pupil. The preparation was mounted in a 10 ml organ bath filled with Krebs solution of 30° C. that was bubbled with 95% O2 /5% CO2. The initial resting tension of 0.2 g was applied to the preparation and measurement of isometric muscle tension was recorded.
The action of testing drug is shown in terms of pA2 determined from Schild plot of the extent of right shift of the concentration-response curve on 10^-6 M~10^-2 M of acetylcholine.

[3] = biological target: T3, heart muscarine receptors (Cavia porcellus, UniProt H0VRN8); experiment: Antagonism action on the acetylcholine-induced negative chronotropic action of atrium of heart (in vitro test); conditions: guinea pig atrium of heart, Schild plot, acetylcholine 10^-9 M~3×10^-6 M, 32° C., read-out: pA2 Atrium (converted)
T3 construct: The heart was removed to make a preparation of atrium of heart; from tissue; host or cells: isolated atrium of Hartley male guinea pig
T3 sequence (H0VRN8 1-466): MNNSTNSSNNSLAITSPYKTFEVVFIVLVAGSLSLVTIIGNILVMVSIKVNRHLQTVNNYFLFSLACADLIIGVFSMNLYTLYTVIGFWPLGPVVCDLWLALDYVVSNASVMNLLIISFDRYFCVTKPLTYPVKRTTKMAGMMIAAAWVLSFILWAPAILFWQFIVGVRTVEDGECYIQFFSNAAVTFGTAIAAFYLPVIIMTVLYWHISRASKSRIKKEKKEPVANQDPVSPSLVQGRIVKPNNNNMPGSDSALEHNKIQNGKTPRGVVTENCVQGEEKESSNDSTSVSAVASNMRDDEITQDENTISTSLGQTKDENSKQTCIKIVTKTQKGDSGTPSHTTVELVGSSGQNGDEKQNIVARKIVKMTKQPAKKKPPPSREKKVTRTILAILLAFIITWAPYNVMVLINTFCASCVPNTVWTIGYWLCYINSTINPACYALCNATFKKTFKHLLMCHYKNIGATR
Protocol: 3. Antagonism action on the acetylcholine-induced negative chronotropic action of atrium of heart (in vitro test)
Hartley male guinea pig was killed by stunning and bleeding. The heart was removed to make a preparation of atrium of heart. The preparation was mounted in a 10 ml organ bath filled with Krebs-Henseleit solution of 32° C. that was bubbled with 95% O2 /5% CO2. The initial resting tension was made to be 0.5 g and measurement of isometric muscle tension was recorded.
as §1

[4] = tested on: defecation model under restraint stress; experiment: Inhibitory effect in the defecation model under restraint stress (in vivo test); parameters: species or system rat; conditions: Wistar male rats; 10 mg/kg orally, restraint stress 30 minutes later; defecation measured after 1 hour
Protocol: (§2) 4. Inhibitory effect in the defecation model under restraint stress (in vivo test)
(§3) Wistar strain male rats were employed. Testing drug was administered orally at 10 mg/kg and, after 30 minutes, the restraint stress was given by fixing the forefeet of rat on back side under anesthetization with ether. Moreover, the diameter of pupil (mm) was also measured.
(§4) After allowed to stand for 1 hour in separate cage, the defecation level and diameter of pupil were measured.
The inhibitory rate of defecation was determined from following formula.

pupil = experiment: Diameter of pupil in the restraint stress model (in vivo test); parameters: species or system rat; conditions: Wistar male rats, 10 mg/kg orally
Protocol: as §2, §3, §4

T1 sequence (H0W1Z3 1-590): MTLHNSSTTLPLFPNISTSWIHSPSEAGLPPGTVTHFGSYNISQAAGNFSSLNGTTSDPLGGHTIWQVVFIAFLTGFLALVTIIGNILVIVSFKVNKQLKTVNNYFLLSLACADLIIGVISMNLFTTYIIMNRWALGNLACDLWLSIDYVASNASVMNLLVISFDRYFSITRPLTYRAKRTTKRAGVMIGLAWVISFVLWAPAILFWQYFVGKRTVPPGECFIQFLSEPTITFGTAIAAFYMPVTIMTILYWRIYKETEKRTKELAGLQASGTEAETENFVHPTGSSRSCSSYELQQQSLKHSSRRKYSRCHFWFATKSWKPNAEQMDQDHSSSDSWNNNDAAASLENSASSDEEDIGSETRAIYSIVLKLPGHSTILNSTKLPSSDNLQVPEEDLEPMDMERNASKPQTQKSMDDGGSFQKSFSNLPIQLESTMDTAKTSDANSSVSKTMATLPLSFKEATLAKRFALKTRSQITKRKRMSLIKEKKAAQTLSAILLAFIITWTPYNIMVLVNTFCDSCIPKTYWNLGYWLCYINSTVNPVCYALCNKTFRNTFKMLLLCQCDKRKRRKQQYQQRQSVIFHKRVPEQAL
T2 sequence (G1U308 entry or part of it): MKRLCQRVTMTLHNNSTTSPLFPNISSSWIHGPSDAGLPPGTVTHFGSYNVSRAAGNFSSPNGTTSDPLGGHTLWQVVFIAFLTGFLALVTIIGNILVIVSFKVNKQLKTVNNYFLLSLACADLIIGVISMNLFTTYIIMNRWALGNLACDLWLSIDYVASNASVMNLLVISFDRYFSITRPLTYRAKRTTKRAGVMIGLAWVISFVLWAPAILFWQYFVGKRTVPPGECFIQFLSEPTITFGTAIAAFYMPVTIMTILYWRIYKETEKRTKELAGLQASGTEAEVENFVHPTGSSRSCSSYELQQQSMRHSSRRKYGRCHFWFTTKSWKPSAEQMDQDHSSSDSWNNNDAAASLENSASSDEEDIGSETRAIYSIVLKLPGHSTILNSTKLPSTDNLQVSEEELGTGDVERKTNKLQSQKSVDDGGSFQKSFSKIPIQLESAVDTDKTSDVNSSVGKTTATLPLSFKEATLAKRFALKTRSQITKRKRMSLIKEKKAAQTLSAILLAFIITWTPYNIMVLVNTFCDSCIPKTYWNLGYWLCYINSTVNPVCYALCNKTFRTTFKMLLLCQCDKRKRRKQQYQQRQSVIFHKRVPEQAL

NC(=O)C(CCN1CCC(OCc2cccc(Cl)c2)C1)(c1ccccc1)c1ccccc1 (stereo not drawn) [Example 9, 4-[3-(3-chlorobenzyloxy)pyrrolidine-1-yl]-2,2-diphenylbutaneamide]
Kb [1]: 25.1 nM | Kb [2]: 50.1 nM | Kb [3]: 631 nM | Inhibitory rate of defecation (%) [4]: 48.9% | Diameter of pupil (mm), Immediately after restraint (pupil; Control 0.44): 0.43 mm | Diameter of pupil (mm), After restraint (pupil; after 1 hour, Control 0.48): 0.45 mm
